Paper PMC4412093, “Identification of a Novel Series of Potent TrkA Receptor Tyrosine Kinase Inhibitors” (International Journal of Medicinal Chemistry, 2012)

Columns and labels:
VEGFR2 = VEGFR2 (Homo sapiens, UniProt P35968); test: VEGFR2 kinase enzyme inhibition; format: biochemical; conditions: average of ≥3 experiments
From the text: (§1) Table 1 2-Oxo-3-phenylimidazolidine-1-carboxamide kinase inhibitors based on different scaffolds.

c-Met [1] = target: T1, c-Met (Homo sapiens, UniProt P08581); test: c-Met kinase enzyme inhibition; format: biochemical; conditions: average of ≥3 experiments
T1 sequence (P08581 25-1390): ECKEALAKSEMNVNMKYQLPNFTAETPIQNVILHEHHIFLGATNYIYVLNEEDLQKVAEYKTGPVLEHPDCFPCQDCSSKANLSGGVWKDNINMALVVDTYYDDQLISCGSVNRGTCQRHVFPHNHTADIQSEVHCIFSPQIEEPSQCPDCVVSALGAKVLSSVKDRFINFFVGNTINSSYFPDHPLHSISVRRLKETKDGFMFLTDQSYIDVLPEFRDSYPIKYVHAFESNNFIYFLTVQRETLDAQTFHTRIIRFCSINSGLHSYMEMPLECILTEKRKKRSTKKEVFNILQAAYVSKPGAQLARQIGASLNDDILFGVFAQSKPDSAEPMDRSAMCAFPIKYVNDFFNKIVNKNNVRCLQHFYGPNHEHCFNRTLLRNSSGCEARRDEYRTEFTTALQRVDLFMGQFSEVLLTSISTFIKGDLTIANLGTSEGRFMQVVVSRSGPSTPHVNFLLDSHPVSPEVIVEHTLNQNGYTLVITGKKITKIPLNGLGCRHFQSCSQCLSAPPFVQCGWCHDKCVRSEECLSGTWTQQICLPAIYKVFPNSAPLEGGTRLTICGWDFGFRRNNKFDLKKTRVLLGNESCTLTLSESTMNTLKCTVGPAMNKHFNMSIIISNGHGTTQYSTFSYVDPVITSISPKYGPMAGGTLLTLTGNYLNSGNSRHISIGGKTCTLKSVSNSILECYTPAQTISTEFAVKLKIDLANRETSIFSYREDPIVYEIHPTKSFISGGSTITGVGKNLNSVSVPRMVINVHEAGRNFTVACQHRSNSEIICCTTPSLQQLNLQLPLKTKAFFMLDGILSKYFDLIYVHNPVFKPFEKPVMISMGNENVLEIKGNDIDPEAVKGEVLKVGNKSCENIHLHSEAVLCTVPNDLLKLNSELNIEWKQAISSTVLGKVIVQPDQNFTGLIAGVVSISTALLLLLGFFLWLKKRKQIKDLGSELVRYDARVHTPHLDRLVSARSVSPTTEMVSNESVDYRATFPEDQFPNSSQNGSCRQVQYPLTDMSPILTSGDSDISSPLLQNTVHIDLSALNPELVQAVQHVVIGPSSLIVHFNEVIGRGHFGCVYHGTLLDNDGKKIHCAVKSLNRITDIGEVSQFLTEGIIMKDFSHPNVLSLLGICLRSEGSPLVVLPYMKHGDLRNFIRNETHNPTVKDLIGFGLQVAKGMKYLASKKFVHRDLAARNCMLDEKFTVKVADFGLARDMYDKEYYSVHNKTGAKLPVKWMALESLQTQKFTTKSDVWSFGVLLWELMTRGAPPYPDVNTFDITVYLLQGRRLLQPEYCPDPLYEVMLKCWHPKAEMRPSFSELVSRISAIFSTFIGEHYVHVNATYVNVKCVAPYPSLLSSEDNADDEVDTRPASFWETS
From the text: as §1

TrkA human enzyme = TrkA human enzyme (Homo sapiens, UniProt P04629); test: TrkA kinase enzyme inhibition; format: biochemical; conditions: for inhibition at 0.1 µM / inhibition at 0.03 µM: average of ≥3 experiments; for inhibition at 0.1 µM: read-out: TrkA % inh. at 0.1 μM; for IC50: average of ≥2 experiments; for inhibition at 0.03 µM: 30 nM, read-out: TrkA % inh. at 30 nM
Sequence of TrkA human enzyme (P04629 33-796): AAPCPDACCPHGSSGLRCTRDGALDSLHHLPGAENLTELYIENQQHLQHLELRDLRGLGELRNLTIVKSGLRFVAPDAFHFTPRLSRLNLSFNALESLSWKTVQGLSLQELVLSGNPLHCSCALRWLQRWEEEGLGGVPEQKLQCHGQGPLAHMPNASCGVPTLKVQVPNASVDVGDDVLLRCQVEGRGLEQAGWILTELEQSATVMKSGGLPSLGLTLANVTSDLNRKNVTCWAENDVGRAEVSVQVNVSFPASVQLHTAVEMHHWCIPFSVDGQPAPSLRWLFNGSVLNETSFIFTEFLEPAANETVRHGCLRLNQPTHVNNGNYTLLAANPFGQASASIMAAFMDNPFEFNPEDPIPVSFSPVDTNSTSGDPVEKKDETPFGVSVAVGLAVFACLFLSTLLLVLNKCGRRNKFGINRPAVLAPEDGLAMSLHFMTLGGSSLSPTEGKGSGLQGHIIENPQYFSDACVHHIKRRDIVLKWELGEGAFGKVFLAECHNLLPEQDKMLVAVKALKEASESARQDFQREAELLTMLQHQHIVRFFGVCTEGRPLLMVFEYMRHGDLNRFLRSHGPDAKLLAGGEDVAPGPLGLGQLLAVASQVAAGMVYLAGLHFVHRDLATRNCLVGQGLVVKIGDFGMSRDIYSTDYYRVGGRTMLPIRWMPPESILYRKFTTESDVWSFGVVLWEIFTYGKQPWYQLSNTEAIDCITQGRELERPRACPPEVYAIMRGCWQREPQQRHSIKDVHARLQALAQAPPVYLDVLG

TrkA [2] = test system: TrkA; design: method as in PMID 18646745, PMID 19509272; conditions: read-out: TrkA EC50 (reported); cited from earlier work
TrkA [3] = conditions: read-out: TrkA IC50 (reported); cited from earlier work
JAK3 = target: T2, JAK3 (Homo sapiens, UniProt P52333); test: Millipore Kinaseprofiler, JAK3; format: biochemical; conditions: tested at 100 nM
T2 construct: purchased Millipore (Kinaseprofiler assay service)
Experimental: (§2) Compound 5 was profiled and tested at 100 nM against 24 other kinase enzymes using Millipore's Kinaseprofiler assay services.

TrkB = TrkB (Homo sapiens, UniProt Q16620); test: TrkB kinase inhibition; format: biochemical; conditions: tested at 10 nM
Experimental: as §2

PI3-Kinaseβ = target: T3, PI3-Kinaseβ (Homo sapiens, UniProt P42338); test: Millipore Kinaseprofiler, PI3-Kinaseβ; format: biochemical; conditions: tested at 100 nM
T3 construct: purchased Millipore (Kinaseprofiler assay service)
Experimental: as §2

c-Met [4] = target: T1, c-Met; test: Millipore Kinaseprofiler, c-Met; format: biochemical; design: purchased Millipore (Kinaseprofiler assay service); conditions: tested at 100 nM
Experimental: as §2

LIMK1 = target: T4, LIMK1 (Homo sapiens, UniProt P53667); test: Millipore Kinaseprofiler, LIMK1; format: biochemical; conditions: tested at 100 nM
T4 construct: purchased Millipore (Kinaseprofiler assay service)
Experimental: as §2

cKit = target: T5, cKit (Homo sapiens, UniProt P10721); test: Millipore Kinaseprofiler, cKit; format: biochemical; conditions: tested at 100 nM
T5 construct: purchased Millipore (Kinaseprofiler assay service)
Experimental: as §2

IKKβ = target: T6, IKKβ (Homo sapiens, UniProt O14920); test: Millipore Kinaseprofiler, IKKβ; format: biochemical; conditions: tested at 100 nM
T6 construct: purchased Millipore (Kinaseprofiler assay service)
Experimental: as §2

ALK = target: T7, ALK (Homo sapiens, UniProt Q9UM73); test: Millipore Kinaseprofiler, ALK; format: biochemical; conditions: tested at 100 nM
T7 construct: purchased Millipore (Kinaseprofiler assay service)
Experimental: as §2

PKBα = target: T8, PKBα (Homo sapiens, UniProt P31749); test: Millipore Kinaseprofiler, PKBα; format: biochemical; conditions: tested at 100 nM
T8 construct: purchased Millipore (Kinaseprofiler assay service)
Experimental: as §2

CHK1 = target: T9, CHK1 (Homo sapiens, UniProt O14757); test: Millipore Kinaseprofiler, CHK1; format: biochemical; conditions: tested at 100 nM
T9 construct: purchased Millipore (Kinaseprofiler assay service)
Experimental: as §2

Bmx = target: T10, Bmx (Homo sapiens, UniProt P51813); test: Millipore Kinaseprofiler, Bmx; format: biochemical; conditions: tested at 100 nM
T10 construct: purchased Millipore (Kinaseprofiler assay service)
Experimental: as §2

EphB4 = target: T11, EphB4 (Homo sapiens, UniProt P54760); test: Millipore Kinaseprofiler, EphB4; format: biochemical; conditions: tested at 100 nM
T11 construct: purchased Millipore (Kinaseprofiler assay service)
Experimental: as §2

Ron = target: T12, Ron (Homo sapiens, UniProt Q04912); test: Millipore Kinaseprofiler, Ron; format: biochemical; conditions: tested at 100 nM
T12 construct: purchased Millipore (Kinaseprofiler assay service)
Experimental: as §2

JAK2 = target: T13, JAK2 (Homo sapiens, UniProt O60674); test: Millipore Kinaseprofiler, JAK2; format: biochemical; conditions: tested at 100 nM
T13 construct: purchased Millipore (Kinaseprofiler assay service)
Experimental: as §2

MEK1 = target: T14, MEK1 (Homo sapiens, UniProt Q02750); test: Millipore Kinaseprofiler, MEK1; format: biochemical; conditions: tested at 100 nM
T14 construct: purchased Millipore (Kinaseprofiler assay service)
Experimental: as §2

Ret = target: T15, Ret (Homo sapiens, UniProt P07949); test: Millipore Kinaseprofiler, Ret; format: biochemical; conditions: tested at 100 nM
T15 construct: purchased Millipore (Kinaseprofiler assay service)
Experimental: as §2

Flt3 = target: T16, Flt3 (Homo sapiens, UniProt P36888); test: Millipore Kinaseprofiler, Flt3; format: biochemical; conditions: tested at 100 nM
T16 construct: purchased Millipore (Kinaseprofiler assay service)
T16 sequence (P36888 27-993): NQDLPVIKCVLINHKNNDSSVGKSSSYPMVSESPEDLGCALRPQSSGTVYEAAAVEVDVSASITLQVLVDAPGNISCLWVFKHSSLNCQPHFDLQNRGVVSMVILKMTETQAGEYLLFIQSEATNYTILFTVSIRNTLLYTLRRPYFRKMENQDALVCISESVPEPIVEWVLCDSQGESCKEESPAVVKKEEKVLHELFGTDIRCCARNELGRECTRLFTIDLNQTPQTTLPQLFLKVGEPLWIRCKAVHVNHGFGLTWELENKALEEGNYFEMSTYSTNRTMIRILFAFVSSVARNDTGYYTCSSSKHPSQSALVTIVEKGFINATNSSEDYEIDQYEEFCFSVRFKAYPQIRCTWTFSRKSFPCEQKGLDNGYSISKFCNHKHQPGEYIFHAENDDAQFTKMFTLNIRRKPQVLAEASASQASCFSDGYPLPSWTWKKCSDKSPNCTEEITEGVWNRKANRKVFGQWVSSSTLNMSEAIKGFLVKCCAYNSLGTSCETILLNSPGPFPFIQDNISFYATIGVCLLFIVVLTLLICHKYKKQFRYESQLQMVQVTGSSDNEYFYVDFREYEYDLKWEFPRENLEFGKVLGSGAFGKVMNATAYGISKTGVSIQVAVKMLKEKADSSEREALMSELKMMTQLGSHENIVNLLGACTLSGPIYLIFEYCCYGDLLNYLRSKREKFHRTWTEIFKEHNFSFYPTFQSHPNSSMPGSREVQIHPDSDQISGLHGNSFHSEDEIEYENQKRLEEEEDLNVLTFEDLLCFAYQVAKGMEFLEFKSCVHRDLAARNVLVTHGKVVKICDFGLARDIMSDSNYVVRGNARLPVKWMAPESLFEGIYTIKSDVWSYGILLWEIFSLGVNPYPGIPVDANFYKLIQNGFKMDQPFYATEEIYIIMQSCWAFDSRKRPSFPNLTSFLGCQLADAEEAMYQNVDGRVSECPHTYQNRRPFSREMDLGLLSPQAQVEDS
Experimental: as §2

FAK = target: T17, FAK (Homo sapiens, UniProt Q05397); test: Millipore Kinaseprofiler, FAK; format: biochemical; conditions: tested at 100 nM
T17 construct: purchased Millipore (Kinaseprofiler assay service)
Experimental: as §2

Haspin = target: T18, Haspin (Homo sapiens, UniProt Q8TF76); test: Millipore Kinaseprofiler, Haspin; format: biochemical; conditions: tested at 100 nM
T18 construct: purchased Millipore (Kinaseprofiler assay service)
Experimental: as §2

[5] = Rat pharmacokinetic profile; format: in vivo
From the text: Compound 5 was further evaluated for its pharmacokinetic properties in the rat (Table 5).

PDK1 = target: T19, PDK1 (Homo sapiens, UniProt O15530); test: Millipore Kinaseprofiler, PDK1; format: biochemical; conditions: tested at 100 nM
T19 construct: purchased Millipore (Kinaseprofiler assay service)
Experimental: as §2

Pim-1 = target: T20, Pim-1 (Homo sapiens, UniProt P11309); test: Millipore Kinaseprofiler, Pim-1; format: biochemical; conditions: tested at 100 nM
T20 construct: purchased Millipore (Kinaseprofiler assay service)
T20 sequence (P11309 whole entry): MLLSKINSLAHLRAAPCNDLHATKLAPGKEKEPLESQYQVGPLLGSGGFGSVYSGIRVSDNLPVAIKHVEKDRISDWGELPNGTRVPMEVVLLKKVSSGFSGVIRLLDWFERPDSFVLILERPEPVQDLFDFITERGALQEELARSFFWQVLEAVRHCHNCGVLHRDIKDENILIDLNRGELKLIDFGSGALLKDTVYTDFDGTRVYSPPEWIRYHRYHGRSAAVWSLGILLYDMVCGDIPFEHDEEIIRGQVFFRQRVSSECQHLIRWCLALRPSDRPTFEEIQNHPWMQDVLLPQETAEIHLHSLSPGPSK
Experimental: as §2

GSK3β = target: T21, GSK3β (Homo sapiens, UniProt P49841); test: Millipore Kinaseprofiler, GSK3β; format: biochemical; conditions: tested at 100 nM
T21 construct: purchased Millipore (Kinaseprofiler assay service)
Experimental: as §2

Tie2 = target: T22, Tie2 (Homo sapiens, UniProt Q02763); test: Millipore Kinaseprofiler, Tie2; format: biochemical; conditions: tested at 100 nM
T22 construct: purchased Millipore (Kinaseprofiler assay services)
Experimental: as §2

c-Raf = target: T23, c-Raf (Homo sapiens, UniProt P04049); test: Millipore Kinaseprofiler, c-Raf; format: biochemical; conditions: tested at 100 nM
T23 construct: purchased Millipore (Kinaseprofiler assay service)
Experimental: as §2

[6] = p.o. dose 5.25 mg/kg, dose-normalised

Sequence of VEGFR2 (P35968 20-1356, species assumed): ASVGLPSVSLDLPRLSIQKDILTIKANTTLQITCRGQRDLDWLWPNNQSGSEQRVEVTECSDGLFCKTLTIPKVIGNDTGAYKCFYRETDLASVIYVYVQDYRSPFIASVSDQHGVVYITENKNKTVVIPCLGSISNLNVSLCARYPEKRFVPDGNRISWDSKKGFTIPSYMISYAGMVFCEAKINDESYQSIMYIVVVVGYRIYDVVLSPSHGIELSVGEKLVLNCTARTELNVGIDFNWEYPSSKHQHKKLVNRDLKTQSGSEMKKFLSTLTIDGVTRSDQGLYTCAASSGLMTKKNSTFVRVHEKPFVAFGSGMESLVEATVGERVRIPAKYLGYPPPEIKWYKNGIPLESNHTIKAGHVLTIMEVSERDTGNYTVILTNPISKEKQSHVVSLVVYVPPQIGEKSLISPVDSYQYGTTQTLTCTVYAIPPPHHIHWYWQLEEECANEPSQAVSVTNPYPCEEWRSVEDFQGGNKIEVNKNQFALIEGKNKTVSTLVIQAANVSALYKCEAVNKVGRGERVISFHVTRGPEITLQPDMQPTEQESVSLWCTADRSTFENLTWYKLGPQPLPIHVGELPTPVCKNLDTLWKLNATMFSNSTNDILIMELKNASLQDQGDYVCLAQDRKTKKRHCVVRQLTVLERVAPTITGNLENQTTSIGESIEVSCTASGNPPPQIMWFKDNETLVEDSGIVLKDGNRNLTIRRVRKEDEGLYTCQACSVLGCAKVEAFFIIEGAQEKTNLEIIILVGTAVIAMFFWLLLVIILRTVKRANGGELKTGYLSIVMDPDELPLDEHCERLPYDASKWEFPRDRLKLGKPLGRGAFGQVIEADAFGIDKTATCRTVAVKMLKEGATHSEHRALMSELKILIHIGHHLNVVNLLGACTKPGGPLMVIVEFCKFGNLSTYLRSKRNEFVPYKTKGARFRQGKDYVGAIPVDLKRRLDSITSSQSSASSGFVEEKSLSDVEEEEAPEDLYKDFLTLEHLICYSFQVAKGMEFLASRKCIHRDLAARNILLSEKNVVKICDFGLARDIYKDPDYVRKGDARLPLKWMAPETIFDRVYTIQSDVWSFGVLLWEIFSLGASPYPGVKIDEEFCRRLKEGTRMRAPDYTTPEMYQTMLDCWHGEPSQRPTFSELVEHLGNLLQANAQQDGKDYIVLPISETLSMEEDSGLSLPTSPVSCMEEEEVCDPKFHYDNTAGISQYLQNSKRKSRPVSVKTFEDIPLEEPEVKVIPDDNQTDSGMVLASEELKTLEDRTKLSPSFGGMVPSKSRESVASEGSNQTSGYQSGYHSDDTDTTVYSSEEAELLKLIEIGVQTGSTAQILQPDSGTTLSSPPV

O=C(Nc1cc(Oc2ccc(NC(=O)N3CCN(c4ccccc4)C3=O)cc2F)ncn1)N1CCCC1 [Cpd 3]
IC50 (VEGFR2): 150 nM
IC50 (c-Met [1]): 50 nM
inhibition at 0.1 µM (TrkA human enzyme): 16%

CNC(=O)Nc1ccc(Oc2cccc(NC(=O)N3CCN(c4ccccc4)C3=O)c2)cn1 [Cpd 15]
IC50 (TrkA human enzyme): 5 nM

CNC(=O)Nc1ccc(Oc2cccc(NC(=O)N3CCN(c4ccc(F)cc4)C3=O)c2)cn1 [Cpd 16]
IC50 (TrkA human enzyme): 2 nM

CC(C)Oc1cc(Nc2nc(N[C@@H](C)c3ccc(F)cc3)ncc2Cl)n[nH]1 [AZ-23]
EC50 (TrkA [2]): 1 nM
IC50 (TrkA [3]): < 3 nM

CC(=O)Nc1ccc(Oc2ccc(Cl)c(NC(=O)N3CCN(c4ccccc4)C3=O)c2)cn1 [Cpd 12]
inhibition at 0.03 µM (TrkA human enzyme): 0%

CC(=O)Nc1ccc(C#Cc2cccc(NC(=O)N3CCN(c4ccccc4)C3=O)c2)cn1 [Cpd 7]
inhibition at 0.03 µM (TrkA human enzyme): 16%

CCNC(=O)OC(C)C1c2ccccc2-c2c3c(c4c([nH]c5ccccc54)c21)CNC3=O (stereo not shown) [Compound 12a]
IC50 (TrkA [3]): 8 nM

CC(=O)Nc1ccc(Oc2cc(NC(=O)N3CCN(c4ccccc4)C3=O)ccc2C)cn1 [Cpd 10]
inhibition at 0.03 µM (TrkA human enzyme): 6%

Nc1ccc(Oc2cccc(NC(=O)N3CCN(c4ccccc4)C3=O)c2)cn1 [Cpd 13]
IC50 (TrkA human enzyme): 20 nM

O=C(NCCN1CCCC1)Nc1ccc(Oc2cccc(NC(=O)N3CCN(c4ccc(F)cc4)C3=O)c2)cn1 [Cpd 17]
IC50 (TrkA human enzyme): 4 nM

NC(=O)Nc1snc(S[C@@H]2CCCCc3ccccc32)c1C(N)=O [Compound 5n]
IC50 (TrkA [3]): < 1 nM

CC(=O)Nc1ccc(Oc2cccc(NC(=O)N3CCN(c4ccc(F)cc4)C3=O)c2)cn1 [Cpd 14]
IC50 (TrkA human enzyme): 3 nM

COc1ccc(NC(=O)N2CCN(c3ccccc3)C2=O)cc1Oc1ccc(NC(C)=O)nc1 [Cpd 11]
inhibition at 0.03 µM (TrkA human enzyme): 15%

COc1cc2nccc(Oc3ccc(NC(=O)N4CCN(c5ccccc5)C4=O)cc3F)c2cc1OC [Cpd 2]
IC50 (VEGFR2): 10 nM
IC50 (c-Met [1]): 30 nM
inhibition at 0.1 µM (TrkA human enzyme): 94%

CCn1cnc(-c2cc3nccc(Oc4ccc(NC(=O)N5CCN(c6ccccc6)C5=O)cc4F)c3s2)c1 [Cpd 1]
IC50 (VEGFR2): 10 nM
IC50 (c-Met [1]): 20 nM
inhibition at 0.1 µM (TrkA human enzyme): 82%

O=C(Nc1cc(Oc2ccc(NC(=O)N3CCN(c4ccccc4)C3=O)cc2F)ccn1)N1CCCC1 [Cpd 4]
IC50 (VEGFR2): 230 nM
IC50 (c-Met [1]): 30 nM
inhibition at 0.1 µM (TrkA human enzyme): 49%

CC(=O)Nc1ccc(Oc2cccc(NC(=O)N3CCN(c4ccccc4)C3=O)c2)cn1 [Cpd 5]
inhibition at 0.1 µM (JAK3): < 40%
inhibition at 0.01 µM (TrkB): 40%
inhibition at 0.1 µM (PI3-Kinaseβ): < 40%
inhibition at 0.1 µM (c-Met [4]): < 40%
inhibition at 0.1 µM (LIMK1): < 40%
inhibition at 0.1 µM (cKit): < 40%
inhibition at 0.1 µM (IKKβ): < 40%
inhibition at 0.1 µM (ALK): < 40%
inhibition at 0.1 µM (PKBα): < 40%
inhibition at 0.1 µM (CHK1): < 40%
inhibition at 0.1 µM (Bmx): < 40%
inhibition at 0.1 µM (EphB4): < 40%
inhibition at 0.1 µM (Ron): < 40%
inhibition at 0.1 µM (JAK2): < 40%
inhibition at 0.1 µM (MEK1): < 40%
IC50 (VEGFR2): 2500 nM
inhibition at 0.1 µM (Ret): < 40%
inhibition at 0.1 µM (Flt3): 83%
inhibition at 0.1 µM (FAK): < 40%
inhibition at 0.1 µM (Haspin): < 40%
clearance ([5]; in vivo, iv, i.v. dose 2.58 mg/kg, read-out: Cl i.v. (converted)): 55 mL/min/kg
half-life ([5]; in vivo, iv, i.v. dose 2.58 mg/kg, read-out: T1/2, i.v. (converted)): 1.5 h
Vd ([5]; in vivo, iv, i.v. dose 2.58 mg/kg, read-out: Vss i.v.): 3.7 L/kg
bioavailability ([5]; in vivo, oral, i.v. 2.58 mg/kg, p.o. 5.25 mg/kg): 99%
Tmax ([5]; in vivo, po, p.o. dose 5.25 mg/kg): 4 h
N. AUC, p.o. [5, 6]: 0.83 μM.h/(mg/kg)
N. C max, p.o. [5, 6]: 0.08 μM/(mg/kg)
inhibition at 0.1 µM (PDK1): < 40%
inhibition at 0.1 µM (Pim-1): < 40%
inhibition at 0.1 µM (GSK3β): < 40%
IC50 (c-Met [1]): 310 nM
inhibition at 0.1 µM (Tie2): < 40%
inhibition at 0.03 µM (TrkA human enzyme): 96%
inhibition at 0.1 µM (TrkA human enzyme): 98%
IC50 (TrkA human enzyme): 4 nM
inhibition at 0.1 µM (c-Raf): < 40%

CC(=O)Nc1ccc(NC(=O)Nc2cccc(NC(=O)N3CCN(c4ccccc4)C3=O)c2)cn1 [Cpd 6]
inhibition at 0.03 µM (TrkA human enzyme): 5%

Cc1ccc(Sc2cnc(Nc3cccc(Br)n3)s2)cc1C(=O)N1CCN(C(=O)CN)CC1 [Compound 20h]
IC50 (TrkA [3]): 0.6 nM
